B1: THTVGSYFSVQNGYVGAFSQALGNSEYAMNSPLGSLDGRTTMYNLLGVKYLFAREDQ LKKQ (peptide, listed as Lactobacillus plantarum)
chain: THTVGSYFSVQNGYVGAFSQALGNSEYAMNSPLGSLDGRTTMYNLLGVKYLFAREDQLKKQ
notes: positive control

System: DSS-induced IBD in mice
Assay: Intervention effect on DSS-induced acute IBD mouse model
Type: in vivo, Male C57BL6 mice
Conditions: DSS 2.5 wt % induced acute IBD mice, 50 μg/kg intragastric; for colonic histopathologic score / colon length: 7 days pre-administration then daily with DSS, x±SD; for colonic histopathologic score: HE staining; for colon length: in cm (unit assumed)
Procedure: The administration of a DSS solution with a specified concentration to mice can induce an acute IBD model characterized by diarrhea, hematochezia, ulcer, and granulocyte infiltration. Mice were randomly grouped according to body weights of the mice. 40 healthy male C57BL6 mice were divided into four groups each with 10 mice:
blank control group: the mice were each intragastrically administered with water every day at a volume of 0.4 mL/20 g;
model group: the mice were each intragastrically administered with a DSS aqueous solution of a mass fraction of 2.5 wt % consecutively for 7 days, where the DSS aqueous solution was freshly prepared and changed every day;
(§1) MIMP positive control group: the mice were each given a pre-administration process for one week, that is, the mice were each intragastrically administered with an MIMP solution of a mass fraction of 50 μg/kg for the first 7 days, and then from day 8, the mice were each intragastrically administered with a DSS aqueous solution of a mass fraction of 2.5 wt % (at a volume of 0.4 mL/20 g) and an MIMP solution of a mass fraction of 50 μg/kg (at a volume of 0.4 mL/20 g) every day; and
as §1, with “MP-B experimental” for “MIMP positive control”, “MP-B” for “MIMP”, “and” for “and then”, “day.” for “day; and”
The body weight changes of mice in each group were recorded every day to determine whether the acute IBD mouse model was successfully established.
A mouse colon between an anus end to an ileocecal end was integrally collected, and a length of the colon was measured; and the colon was dissected along a longitudinal axis, feces therein were rinsed off, and then the colon was stored in 4% paramethanol.
The colon sample stored in 4% paramethanol in step 1.2 was subjected to histopathological section, stained with hematoxylin-eosin (HE), and dehydrated, obtained sections were sealed and examined under an optical microscope, and the histopathological scoring was conducted by two blind examination operators:
Experimental data in the above experimental method were expressed as (x±SD), the GraphPad Prism (ver. 8.0, GraphPad Software Inc., San Diego, Calif., USA) was used to plot a chart, the SPSS Program (ver. 25.0, SPSS Inc., Chicago, Ill., USA) was used for statistical test, and one-way ANOVA or independent two-sample t-test were used for significance test when the normality and homogeneity of variances were met. It was assumed that α=0.05, and P<0.05 indicates a statistically significant difference.

Molecule | colonic histopathological observation (HE staining micrographs) | colonic histopathologic score | colon length
SPLGSLDGRETMYNLGGVKYLFARMDQLKKQ (SPLGSLDGRXTMYNLXGVKYLFARXDQLKKQ; Sequence is synthesized; (10)..(10) Xaa can be Arg, Phe, Glu, Thr, or absent; (16)..(16) Xaa can be Asn, Val, Leu, Gly, or absent; (25)..(25) Xaa can be Ser, Glu, Met, Arg, or absent) [MP-B] | no obvious inflammation | 1.4±0.6 | 8.0±0.5
B1 | – | 3.1±0.2 | 7.6±0.5
